The values that follow come from patent US20010001101A1, “Phenanthroline derivatives” (Zeneca Limited, priority 1997, published 2001).

The test system of data set [1] is granulation tissue in wound chamber. Briefly: in vivo wound chamber model. Set-up: species or system rat. To be noted: injected into chamber daily, day 7-14 treatment; for response vs control in vivo at 0.01 mg / response vs control in vivo at 0.05 mg: Rattus norvegicus, read-out: Mean Collagen content (% of Control) On Day 14. The protocol:
(e) An in vivo wound chamber model involving the measurement of histological changes in granulation tissue. The test compounds were tested in rats according to the procedures generally described in Schilling et al., Surgery 46(4):702-710 (1959), Hunt et al., Am. J. Surgery 114:302-307 (1967), and Grotendorst et al., J. Clin Inves. 76:2323-2329 (1985). More specifically, stainless wire mesh cylinders were implanted subcutaneously under the back skin of rats (two chambers per animal). The compounds of the present invention were then dissolved in DMSO and injected into each chamber on a daily basis at various concentrations from either day 0-14 or day 7-14. On day 14, the chambers were collected and the granulation tissues contained within the chambers were collected for biochemical (collagen content) or histological evaluation.
Following the in vivo wound chamber model described above, fourteen of the claimed compounds tested to determine the effectiveness of the claimed compounds in inhibiting collagen deposition in the wound chamber.

The next data set concerns dermal punch wound. The data set can be described thus: dermal wound healing, rat punch model. In kind it is in vivo. Conditions: compared to control. The protocol:
FIG. 5 illustrates wound area after treatment of Compound 3 in the dermal punch model.
(§1) The effectiveness of the compounds in dermal wound healing was tested using two wound healing models—rat punch model and rat incisional model—as described above.

For another data set, the system named is dermal incisional wound. Briefly: dermal wound healing, rat incisional model. Type of data set: in vivo. To be noted: compared to control. The protocol: FIG. 6 illustrates the tensile strength on dermal incisional wound on day 7 after oral treatment of Compound 3 and Compound 12.
FIG. 7 illustrates the tensile strength of incisional wound after local injections of Compound 12.
as §1

Take `O=C1c2ccc3cc(C(=O)N4CCN(Cc5ccccc5)CC4)cnc3c2N=CC1[N+](=O)[O-]` (centres unmarked) [Compound 10, 3-nitro-8-(4-benzylpiperazine-ylcarbonyl)-4-oxo-3,4-dihydro-1,10-phenanthroline]: the figures for the “Mean Collagen content (% of Control) On Day 14” value in data set [1] (10 μg dosage) and in data set [1] (50 μg dosage) were 94.81 % of Control and 76.54 % of Control, respectively. As usually defined, the melting point is the temperature, or range, at which the solid turns liquid. For the compound `O=C(O)C1C=Nc2c(ccc3cc(C(=O)N4CCc5ccccc5C4)cnc23)C1=O` (centres unmarked) [Example XIV, 3-carboxy-4-oxo-8-(1,2,3,4-tetrahydroisoquinolin-2-ylcarbonyl)-3,4-dihydro-1,10-phenanthroline], the melting point is 171 to 182 °C. For `O=C(O)C1C=Nc2c(c(Cl)cc3cccnc23)C1=O` (centres unmarked) [Compound 2, 5-chloro-3-carboxy-4-oxo-3,4-dihydro-1,10-phenanthroline], the response vs control in vivo at 0.01 mg in data set [1] (10 μg dosage) was found to be 91.7%. Further, in data set [1] (50 μg dosage), the response vs control in vivo at 0.05 mg was found to be 82.7%.

As to `Cc1cc2cc(C(=O)N(C)Cc3ccccc3)cnc2c2c1C(=O)C(C(=O)O)C=N2` (centres unmarked) [Compound 5, 3-carboxy-8-(N-benzyl-N-methylcarbamoyl)-5-methyl-4-oxo-3,4-dihydro-1,10-phenanthroline], the response vs control in vivo at 0.01 mg in data set [1] (10 μg dosage) was 99.1%. Besides, the response vs control in vivo at 0.05 mg in data set [1] (50 μg dosage) was 80.9%. Take `CN(Cc1ccc(F)cc1F)C(=O)c1cnc2c3c(ccc2c1)C(=O)C(C(=O)O)C=N3` (centres unmarked) [Compound 3, 3-carboxy-8-(N-methyl-N-{2,4-difluorobenzyl}carbamoyl)-4-oxo-3,4-dihydro-1,10-phenanthroline]: the response vs control in vivo at 0.01 mg in data set [1] (10 μg dosage) was 108%. The response vs control in vivo at 0.05 mg in data set [1] (50 μg dosage) stood at 79.8%. For `CCOC(=O)c1cnc2c3c(ccc2c1Cl)C(=O)C(C(C)=O)C=N3` (centres unmarked) [Example X, 3-acetyl-7-chloro-8-ethoxycarbonyl-4-oxo-3,4-dihydro-1,10-phenanthroline], the melting point fell in the range of 288 to 290 °C. Regarding `CCOC(=O)C1C=Nc2c(c(OC)cc3cccnc23)C1=O` (centres unmarked) [Compound 14, 3-ethoxycarbonyl-4-oxo-5-methoxy-3,4-dihydro-1,10-phenanthroline], the healing time result with dermal punch wound is listed as “increased healing time”. Further, in the data set with dermal incisional wound, the “tensile strength of wound” value is listed as “reduced tensil strength”. The response vs control in vivo at 0.01 mg in data set [1] (10 μg dosage) is 72.2%. Also, the response vs control in vivo at 0.05 mg in data set [1] (50 μg dosage) is 70.3%. `CN(Cc1ccc(F)cc1)C(=O)c1cnc2c3c(ccc2c1)C(=O)C([N+](=O)[O-])C=N3` (centres unmarked) [Example VII, 8-[N-(4-fluorobenzyl)-N-methylcarbamoyl]-3-nitro-4-oxo-3,4-dihydro-1,10-phenanthroline] came in with a melting point of 294 to 296 °C.

As to `O=C(OCCN1CCOCC1)C1C=Nc2c(ccc3cccnc23)C1=O` (centres unmarked) [Compound 13, 3-(2-{morpholino}ethoxycarbonyl)-4-oxo-3,4-dihydro-1,10-phenanthroline], the response vs control in vivo at 0.01 mg in data set [1] (10 μg dosage) worked out at 95.5%. The response vs control in vivo at 0.05 mg in data set [1] (50 μg dosage) was 84.3%. The like results for `CN(Cc1ccccc1)C(=O)c1cnc2c3c(ccc2c1)C(=O)C(C#N)C=N3` (centres unmarked) [Compound 4, 3-cyano-8-(N-benzyl-N-methylcarbamoyl)-4-oxo-3,4-dihydro-1,10-phenanthroline] were, in that order, 81.1% and 66%. With `COCCOCCOC(=O)C1C=Nc2c(ccc3cccnc23)C1=O` (centres unmarked) [Compound 8, 3-[2-(2-methoxyethoxy)ethoxycarbonyl]-4-oxo-3,4-dihydro-1,10-phenanthroline], the melting point is 164 to 165 °C. The response vs control in vivo at 0.01 mg in data set [1] (10 μg dosage) was 114%. Besides, the response vs control in vivo at 0.05 mg in data set [1] (50 μg dosage) worked out at 92.5%. Regarding `N#CC1C=Nc2c(ccc3cccnc23)C1=O` (centres unmarked) [Compound 1, 3-cyano-4-oxo-3,4-dihydro-1,10-phenanthroline], the response vs control in vivo at 0.01 mg in data set [1] (10 μg dosage) stood at 110%. The response vs control in vivo at 0.05 mg in data set [1] (50 μg dosage) was found to be 112%. Taken in the same sequence, the figures for `O=C1c2ccc3cccnc3c2N=CC1S(=O)(=O)C(F)(F)F` (centres unmarked) [Compound 11, 3-trifluoromethylsulfonyl-4-oxo-3,4-dihydro-1,10-phenanthroline] were 90.8% and 80.8%. The like results for `CCCN(CC)C(=O)c1cnc2c3c(ccc2c1)C(=O)C([N+](=O)[O-])C=N3` (centres unmarked) [Compound 6, 3-nitro-8-(N-ethyl-N-propylcarbamoyl)-4-oxo-3,4-dihydro-1,10-phenanthroline] were, in that order, 58.8% and 51.1%. The like results for `O=C(O)C1C=Nc2c(ccc3cc(O)cnc23)C1=O` (centres unmarked) [Compound 7, 3-carboxy-8-hydroxy-4-oxo-3,4-dihydro-1,10-phenanthroline] were, in that order, 81.9% and 74.5%. As to `O=C(O)C1C=Nc2c(cc(Cl)c3cccnc23)C1=O` (centres unmarked) [Compound 9, 3-carboxy-6-chloro-4-oxo-3,4-dihydro-1,10-phenanthroline], the response vs control in vivo at 0.01 mg in data set [1] (10 μg dosage) came out at 80.3%. For the same compound, in data set [1] (50 μg dosage), the response vs control in vivo at 0.05 mg amounted to 79.9%.

Compound `CN(Cc1ccccc1)C(=O)c1cnc2c3c(c(F)cc2c1)C(=O)C(C#N)C=N3` (centres unmarked) [Example IX, 8-(N-benzyl-N-methylcarbamoyl)-3-cyano-5-fluoro-4-oxo-3,4-dihydro-1,10-phenanthroline] registered a melting point of 267 to 269 °C. The same measure, in the same setting: the result for `O=C1c2ccc3cccnc3c2N=CC1S(=O)(=O)CC(F)(F)F` (centres unmarked) [Example VI, 3-(2,2,2-trifluoroethyl-sulfonyl)-4-oxo-3,4-dihydro-1,10-phenanthroline] reads 272 to 274 °C. Still for that read-out and setting: the result for `CCOC(=O)C1C=Nc2c(ccc3c(N(C)C)c(C(=O)N(C)Cc4ccccc4)cnc23)C1=O` (centres unmarked) [Example XV, 8-(N-benzyl-N-methylcarbamoyl)-7-dimethylamino-3-ethoxy-carbonyl-4-oxo-3,4-dihydro-1,10-phenanthroline] reads 169 to 170 °C.
